Measured values as given in patent publication US4073892A, “N^2 -alkoxynaphthylsulfonyl-L-argininamides and the pharmaceutically acceptable salts thereof” (Mitsubishi Chemical Industries Limited, priority 1974, dated 1978).

Assays:
thrombin = molecular target: T1, thrombin (Bos taurus, UniProt P00735); test: fibrinogen coagulation time (antithrombotic activity); format: biochemical; conditions: bovine fibrinogen, thrombin solution 5 units/ml, borate saline buffer pH 7.4, 25° C; normal coagulation time 50-55 seconds
T1 construct: purchased Mochida Pharmaceutical Co., Ltd
Protocol: Immediately after mixing, the reaction mixture was transferred from the ice bath to a bath maintained at 25° C. Coagulation times were taken as the period between the time of transference to the 25° C bath and the time of the first appearance of fibrin threads.
The term "concentration required to prolong the coagulation time by a factor of two" is the concentration of an active ingredient required to prolong the normal coagulation time 50-55 seconds to 100-110 seconds.

mice (male, 20 g) = test: acute toxicity (LD50), intraperitoneal administration in mice; format: in vivo
Description: Representative LD50 values, for example, for N^2 -(6, 7-dimethoxy-2-naphthylsulfonyl)-L-arginyl-N-(2-methoxyethyl)glycine, N^2 -(6, 7-dimethoxy-2-naphthylsulfonyl)-L-arginyl-N-(2-ethoxyethyl)-β-alanine, N^2 -(4, 6-dimethoxy-2-naphthylsulfonyl)-L-arginyl-N-(2-methoxyethyl)glycine, N^2 -(7-methoxy-2-naphthylsulfonyl)-L-arginyl-N-(2-methoxyethyl)glycine are 1,900-2,400, 660-1,000, 660-1,000, 2,000 milligrams per kilogram, respectively.

| Compound | Concentration Required to Prolong The Coagulation Time By A Factor of Two (thrombin) | acute toxicity value (LD50) (mice (male, 20 g)) |
| --- | --- | --- |
| CCCN(CC(=O)O)C(=O)[C@H](CCCNC(=N)N)NS(=O)(=O)c1ccc2cc(OC)c(OC)cc2c1 [Sample 1, N^2-(6,7-dimethoxy-2-naphthylsulfonyl)-L-arginyl-N-propylglycine] | 8 µM | – |
| CCCCN(CC(=O)O)C(=O)[C@H](CCCNC(=N)N)NS(=O)(=O)c1ccc2cc(OC)c(OC)cc2c1 [Sample 3, N^2-(6,7-dimethoxy-2-naphthylsulfonyl)-L-arginyl-N-butylglycine] | 0.3 µM | – |
| COc1cc2ccc(S(=O)(=O)N[C@@H](CCCNC(=N)N)C(=O)N(CC(=O)O)CC(C)C)cc2cc1OC [Sample 5, N^2-(6,7-dimethoxy-2-naphthylsulfonyl)-L-arginyl-N-isobutylglycine] | 2 µM | – |
| CCCCCN(CC(=O)O)C(=O)[C@H](CCCNC(=N)N)NS(=O)(=O)c1ccc2cc(OC)c(OC)cc2c1 [Sample 7, N^2-(6,7-dimethoxy-2-naphthylsulfonyl)-L-arginyl-N-pentylglycine] | 5 µM | – |
| CCCCCCN(CC(=O)O)C(=O)[C@H](CCCNC(=N)N)NS(=O)(=O)c1ccc2cc(OC)c(OC)cc2c1 [Sample 9, N^2-(6,7-dimethoxy-2-naphthylsulfonyl)-L-arginyl-N-hexylglycine] | 1.5 µM | – |
| COCCN(CC(=O)O)C(=O)[C@H](CCCNC(=N)N)NS(=O)(=O)c1ccc2cc(OC)c(OC)cc2c1 [Sample 13, N^2-(6,7-dimethoxy-2-naphthylsulfonyl)-L-arginyl-N-(2-methoxyethyl)glycine] | 0.5 µM | 1,900-2,400 milligrams per kilogram |
| CCOC(=O)CN(CCOC)C(=O)[C@H](CCCNC(=N)N)NS(=O)(=O)c1ccc2cc(OC)c(OC)cc2c1 [Sample 14, N^2-(6,7-dimethoxy-2-naphthylsulfonyl)-L-arginyl-N-(2-methoxyethyl)glycine ethyl ester] | 1.5 µM | – |
| COCCN(CCC(=O)O)C(=O)[C@H](CCCNC(=N)N)NS(=O)(=O)c1ccc2cc(OC)c(OC)cc2c1 [Sample 15, N^2-(6,7-dimethoxy-2-naphthylsulfonyl)-L-arginyl-N-(2-methoxyehtyl)-β-alanine] | 2.5 µM | – |
| COCCN(CCCC(=O)O)C(=O)[C@H](CCCNC(=N)N)NS(=O)(=O)c1ccc2cc(OC)c(OC)cc2c1 [Sample 17, N^2-(6,7-dimethoxy-2-naphthylsulfonyl)-N-(2-methoxyethyl)-N-(3-carboxypropyl)-L-argininamide] | 2.5 µM | – |
| COCCCN(CC(=O)O)S(=O)(=O)c1ccc2cc(OC)c(OC)cc2c1 [Sample 19, N^2-(6,7-dimethoxy-2-naphthylsulfonyl)-N-(3-methoxypropyl)glycine] | 5 µM | – |
| CCOCCN(CCC(=O)O)C(=O)[C@H](CCCNC(=N)N)NS(=O)(=O)c1ccc2cc(OC)c(OC)cc2c1 [Sample 21, N^2-(6,7-dimethoxy-2-naphthylsulfonyl)-L-arginyl-N-(2-ethoxyethyl)-β-alanine] | 4 µM | 660-1,000 milligrams per kilogram |
| COCCN(CC(=O)O)C(=O)[C@H](CCCNC(=N)N)NS(=O)(=O)c1cc(OC)c2cc(OC)ccc2c1 [Sample 23, N^2-(4,6-dimethoxy-2-naphthylsulfonyl)-L-arginyl-N-(2-methoxyethyl)glycine] | 4 µM | 660-1,000 milligrams per kilogram |
| CCCCN(CC(=O)O)C(=O)[C@H](CCCNC(=N)N)NS(=O)(=O)c1cc(OC)c2cc(OC)ccc2c1 [Sample 25, N^2-(4,6-dimethoxy-2-naphthylsulfonyl)-L-arginyl-N-butylglycine] | 2 µM | – |
| COCCN(CC(=O)O)C(=O)[C@H](CCCNC(=N)N)NS(=O)(=O)c1ccc2ccc(OC)cc2c1 [Sample 35, N^2-(7-methoxy-2-naphthylsulfonyl)-L-arginyl-N-(2-methoxyethyl)glycine] | 0.5 µM | 2,000 milligrams per kilogram |

The next lines start with results.

| Concentration Required to Prolong The Coagulation Time By A Factor of Two (thrombin) | Compound | acute toxicity value (LD50) (mice (male, 20 g)) |
| --- | --- | --- |
| 15 µM | CCOc1cc2ccc(S(=O)(=O)N[C@@H](CCCNC(=N)N)C(=O)N(CCOC)CC(=O)O)cc2cc1OCC [Sample 27, N^2-(6,7-diethoxy-2-naphthylsulfonyl)-L-arginyl-N-(2-methoxyethyl) glycine] | – |
| 0.5 µM | CCCCN(CC(=O)O)C(=O)[C@H](CCCNC(=N)N)NS(=O)(=O)c1ccc2cc(OC)ccc2c1 [Sample 31, N^2-(6-methoxy-2-naphthylsulfonyl)-L-arginyl-N-butylglycine] | – |
| 0.5 µM | CCCCN(CC(=O)O)C(=O)[C@H](CCCNC(=N)N)NS(=O)(=O)c1ccc2ccc(OC)cc2c1 [Sample 39, N^2-(7-methoxy-2-naphthylsulfonyl)-L-arginyl-N-butylglycine] | – |
| 2.5 µM | COCCN(CC(=O)O)C(=O)[C@H](CCCNC(=N)N)NS(=O)(=O)c1cccc2c(OC)cccc12 [Sample 43, N^2-(5-methoxy-1-naphthylsulfonyl)-L-arginyl-N-(2-methoxyethyl) glycine] | – |
| 6.5 µM | CCOC(=O)CCN(CC(=O)O)C(=O)[C@H](CCCNC(=N)N)NS(=O)(=O)c1ccc2cc(OC)c(OC)cc2c1 [Sample 49, N^2-(6,7-dimethoxy-2-naphthylsulfonyl)-L-arginyl-N-(2-ethoxycarbonylethyl)glycine] | – |
| 2 µM | CCCCCCCCOC(=O)CN(CCOC)C(=O)[C@H](CCCNC(=N)N)NS(=O)(=O)c1ccc2cc(OC)c(OC)cc2c1 [Sample 50, N^2-(6,7-dimethoxy-2-naphthylsulfonyl)-L-arginyl-N-(2-methoxyethyl)glycine octyl ester] | – |
| 20 µM | COCCN(CC(=O)Oc1cccc(C)c1)C(=O)[C@H](CCCNC(=N)N)NS(=O)(=O)c1ccc2cc(OC)c(OC)cc2c1 [Sample 52, N^2-(6,7-dimethoxy-2-naphthylsulfonyl)-L-arginyl-N-(2-methoxyethyl) glycine m-tolyl ester] | – |
| 30 µM | COCCN(CC(=O)Oc1ccc2c(c1)CCC2)C(=O)[C@H](CCCNC(=N)N)NS(=O)(=O)c1ccc2cc(OC)c(OC)cc2c1 [Sample 53, N^2-(6,7-dimethoxy-2-naphthylsulfonyl)-L-arginyl-N-(2-methoxyethyl) glycine 5-indanyl ester] | – |
| 55 µM | CCCC(C(=O)O)N(CC(=O)O)C(=O)[C@H](CCCNC(=N)N)NS(=O)(=O)c1ccc2cc(OC)c(OC)cc2c1 (stereo partly drawn) [Sample 54, N^2-(6,7-dimethoxy-2-naphthylsulfonyl)-L-arginyl-N-(1-carboxybutyl)glycine] | – |
| 6.5 µM | COc1cc2ccc(S(=O)(=O)N[C@@H](CCCNC(=N)N)C(=O)N(CC(=O)O)CC(C)OC)cc2cc1OC (stereo partly drawn) [Sample 55, N^2-(6,7-dimethoxy-2-naphthylsulfonyl)-L-arginyl-N-(2-methoxypropyl)glycine] | – |
| 6.5 µM | COc1ccc2ccc(S(=O)(=O)N[C@@H](CCCNC(=N)N)C(=O)N(CC[S+](C)[O-])CC(=O)O)cc2c1 (stereo partly drawn) [Sample 57, N^2-(7-methoxy-2-naphthylsulfonyl)-L-arginyl-N-(2-methylsulfinylethyl)glycine] | – |
